Data taken from US20140005177A1, “PYRIDINYL- AND PYRAZINYL-METHYLOXY-ARYL DERIVATIVES USEFUL AS INHIBITORS OF SPLEEN TYROSINE KINASE (SYK)” (GLAXO GROUP LIMITED, priority 2011, published 2014).
Where a name gives a salt, the structure may show the parent alone.

System: not given
Assay: not given
Conditions: patients with DLBCL and CLL/SLL; cited from earlier work

Compound | therapeutic effect
COc1cc(Nc2ncc(F)c(Nc3ccc4c(n3)N(COP(=O)(O)O)C(=O)C(C)(C)O4)n2)cc(OC)c1OC [Example R788, fostamatinib disodium] | therapeutic benefit

Same assay, conditions: patients with relapsed or refractory B-Cell NHL; cited from earlier work

Compound | tolerability
COc1cc(Nc2ncc(F)c(Nc3ccc4c(n3)N(COP(=O)(O)O)C(=O)C(C)(C)O4)n2)cc(OC)c1OC [Example R788, fostamatinib disodium] | well-tolerated

System: Ramos B cells
Assay: Ramos pErk assay (anti-IgM stimulated B cells, pErk MSD)
Type: cell-based
Conditions: Homo sapiens, Ramos, anti-IgM 5 μg/ml, pErk readout, read-out: average pIC50 (converted)
Protocol: Ramos B cells (human B cells of Burkitt's Lymphoma) are stimulated using anti-IgM. […] The subsequent autophosphorylation of Syk leads to initiation of a signalling cascade resulting in B cell activation via the Erk MAP Kinase pathway. As a result Erk is phosphorylated and following cell lysis is detected by an immune capture assay.
Cells were plated at a density of 2.5×10^5/well in a volume of 25 μl assay medium (RPMI containing 10% heat inactivated foetal calf serum, 1% L-glutamine) in 96 v-well polypropylene plates. 25 μl appropriately diluted compound solution was added and the plate incubated for 30 min at 37° C. with 5% CO2. Cells were stimulated with 5 μl Fab′2 fragments of goat anti-human IgM (5 μg/ml final) for 7 min at 37° C. Cells are lysed by the addition of 55 μL 2×RIPA lysis buffer for 2 h at 4° C. Lysate may be frozen at this point at −80° C.
50 μl cell lysate was transferred to a 96 well MSD plate coated with anti-pErk1/2 (Thr/Tyr: 202/204; 185/187) capture antibody and incubated for 16 hours at 4° C. or 3 hours at room temperature. The plate was washed and an anti-pErk detection antibody added (25 μl/well) for 1 hour at room temperature. This was removed, 150 μL MSD read buffer added and the resultant electrochemiluminescence signal measured.
Compound was prepared as a 10 mM stock in DMSO and a dilution series prepared in DMSO using 9 successive 5-fold dilutions. This dilution series was diluted a further 1:100 with assay medium to give the final concentration range to be tested of 5×10^−5 to 2.56×10^−11M. Compound dilutions were prepared using the Biomek 2000 and Biomek Nx automated robotic pipetting systems.

Compound | IC50
Cc1ccnc(COc2ccc(F)cc2-c2ccc3c(c2)CNCC3)c1 [Example 6, 7-(5-fluoro-2-{[(4-methyl-2-pyridinyl)methyl]oxy}phenyl)-1,2,3,4-tetrahydroisoquinoline] | 158 to 6310 nM
CNC(=O)c1ccc(OCc2cc(C)ccn2)c(-c2ccc3c(c2)CCNCC3)c1 [Example 39, N-methyl-4-{[(4-methyl-2-pyridinyl)methyl]oxy}-3-(2,3,4,5-tetrahydro-1H-3-benzazepin-7-yl)benzamide] | 158 to 6310 nM
Cc1ccnc(COc2ccc(C(=O)N(C)C)cc2-c2ccc3c(c2)CNCC3)c1 [Example 41, N,N-dimethyl-4-{[(4-methyl-2-pyridinyl)methyl]oxy}-3-(1,2,3,4-tetrahydro-7-isoquinolinyl)benzamide] | 158 to 6310 nM
Cc1ccnc(COc2ccc(C)cc2-c2ccc3c(c2)CNCC3)c1 [Example 10, 7-(5-methyl-2-{[(4-methyl-2-pyridinyl)methyl]oxy}phenyl)-1,2,3,4-tetrahydroisoquinoline] | 158 to 6310 nM
Cc1ccnc(COc2ccc(C#N)cc2-c2ccc3c(c2)CCNCC3)c1 [Example 30, 4-{[(4-methyl-2-pyridinyl)methyl]oxy}-3-(2,3,4,5-tetrahydro-1H-3-benzazepin-7-yl)benzonitrile] | 158 to 6310 nM
COc1ccc(-c2ccc3c(c2)CCNCC3)c(OCc2cc(C)ccn2)c1 [Example 3, 7-(4-(methyloxy)-2-{[(4-methyl-2-pyridinyl)methyl]oxy}phenyl)-2,3,4,5-tetrahydro-1H-3-benzazepine] | 158 to 6310 nM
COc1cccc(OCc2cc(C)ccn2)c1-c1ccc2c(c1)CNCC2 [Example 11, 7-(2-(methyloxy)-6-{[(4-methyl-2-pyridinyl)methyl]oxy}phenyl)-1,2,3,4-tetrahydroisoquinoline] | 158 to 6310 nM
CCOc1ccc(OCc2cc(C)ccn2)c(-c2ccc3c(c2)CCNCC3)c1 [Example 28, 7-(5-(ethyloxy)-2-{[(4-methyl-2-pyridinyl)methyl]oxy}phenyl)-2,3,4,5-tetrahydro-1H-3-benzazepine] | 158 to 6310 nM
Cc1ccnc(COc2ccc(F)cc2-c2ccc3c(c2)CCNCC3)c1 [Example 26, 7-(5-fluoro-2-{[(4-methyl-2-pyridinyl)methyl]oxy}phenyl)-2,3,4,5-tetrahydro-1H-3-benzazepine] | 158 to 6310 nM
COc1ccc(OCc2cc(C)ccn2)c(-c2ccc3c(c2)CNCC3)c1 [Example 16, 7-(5-(methyloxy)-2-{[(4-methyl-2-pyridinyl)methyl]oxy}phenyl)-1,2,3,4-tetrahydroisoquinoline] | 158 to 6310 nM
Cc1ccnc(COc2ccc(Cl)cc2-c2ccc3c(c2)CCNCC3)c1 [Example 45, 7-(5-chloro-2-{[(4-methyl-2-pyridinyl)methyl]oxy}phenyl)-2,3,4,5-tetrahydro-1H-3-benzazepine] | 158 to 6310 nM
Cc1ccnc(COc2ccc(C(C)(C)C)nc2-c2ccc3c(c2)CCNCC3)c1 [Example 34, 7-(6-(1,1-dimethylethyl)-3-{[(4-methyl-2-pyridinyl)methyl]oxy}-2-pyridinyl)-2,3,4,5-tetrahydro-1H-3-benzazepine] | 158 to 6310 nM
Cc1ccnc(COc2ccc(C(F)(F)F)cc2-c2ccc3c(c2)CCNCC3)c1 [Example 31, 7-[2-{[(4-methyl-2-pyridinyl)methyl]oxy}-5-(trifluoromethyl)phenyl]-2,3,4,5-tetrahydro-1H-3-benzazepine] | 158 to 6310 nM
Clc1ccc(OCc2ccccn2)c(-c2ccc3c(c2)CNCC3)c1 [Example 46, 7-{5-chloro-2-[(2-pyridinylmethyl)oxy]phenyl}-1,2,3,4-tetrahydroisoquinoline] | 158 to 6310 nM
Cc1ccnc(COc2ccc(Cl)nc2-c2ccc3c(c2)CNCC3)c1 [Example 49, 7-(6-chloro-3-{[(4-methyl-2-pyridinyl)methyl]oxy}-2-pyridinyl)-1,2,3,4-tetrahydroisoquinoline] | 158 to 6310 nM
CC(=O)c1ccc(OCc2ccccn2)c(-c2ccc3c(c2)CNCC3)c1 [Example 38, 1-[4-[(2-pyridinylmethyl)oxy]-3-(1,2,3,4-tetrahydro-7-isoquinolinyl)phenyl]ethanone] | 158 to 6310 nM

Compound | IC50
Cc1ccnc(COc2ccc(C(C)(C)C)cc2-c2ccc3c(c2)CCNCC3)c1 [Example 32, 7-(5-(1,1-dimethylethyl)-2-{[(4-methyl-2-pyridinyl)methyl]oxy}phenyl)-2,3,4,5-tetrahydro-1H-3-benzazepine] | 158 to 6310 nM
Cc1ccnc(COc2ccc(Cl)nc2-c2ccc3c(c2)CCNCC3)c1 [Example 48, 7-(6-chloro-3-{[(4-methyl-2-pyridinyl)methyl]oxy}-2-pyridinyl)-2,3,4,5-tetrahydro-1H-3-benzazepine] | 158 to 6310 nM
CCc1ccnc(COc2ccc(C(C)=O)cc2-c2ccc3c(c2)CCNCC3)c1 [Example 35, 1-[4-{[(4-ethyl-2-pyridinyl)methyl]oxy}-3-(2,3,4,5-tetrahydro-1H-3-benzazepin-7-yl)phenyl]ethanone] | 158 to 6310 nM
Cc1ccnc(COc2ccc(C)nc2-c2ccc3c(c2)CCNCC3)c1 [Example 19, 7-(6-methyl-3-{[(4-methyl-2-pyridinyl)methyl]oxy}-2-pyridinyl)-2,3,4,5-tetrahydro-1H-3-benzazepine, trifluoroacetate] | 158 to 6310 nM
COc1cccc(OCc2cc(C)ccn2)c1-c1ccc2c(c1)CCNCC2 [Example 2, 7-(2-(methyloxy)-6-{[(4-methyl-2-pyridinyl)methyl]oxy}phenyl)-2,3,4,5-tetrahydro-1H-3-benzazepine] | 158 to 6310 nM
COc1ccc(OCc2ccccn2)c(-c2ccc3c(c2)CCNCC3)c1 [Example 37, 7-{5-(methyloxy)-2-[(2-pyridinylmethyl)oxy]phenyl}-2,3,4,5-tetrahydro-1H-3-benzazepine] | 158 to 6310 nM
CCOc1ccc(OCc2cc(C)ccn2)c(-c2ccc3c(c2)CNCC3)c1 [Example 12, 7-(5-(ethyloxy)-2-{[(4-methyl-2-pyridinyl)methyl]oxy}phenyl)-1,2,3,4-tetrahydroisoquinoline] | 158 to 6310 nM
CC(=O)c1ccc(OCc2cc(C)ccn2)c(-c2ccc3c(c2)CCNCC3)c1 [Example 24, 1-[4-{[(4-methyl-2-pyridinyl)methyl]oxy}-3-(2,3,4,5-tetrahydro-1H-3-benzazepin-7-yl)phenyl]ethanone, trifluoroacetate] | 158 to 6310 nM
COc1ccnc(COc2ccccc2-c2ccc3c(c2)CCNCC3)c1 [Example 7, 7-[2-({[4-(methyloxy)-2-pyridinyl]methyl}oxy)phenyl]-2,3,4,5-tetrahydro-1H-3-benzazepine] | 158 to 6310 nM
COc1ccc(OCc2cnccn2)c(-c2ccc3c(c2)CCNCC3)c1 [Example 20, 7-{5-(methyloxy)-2-[(2-pyrazinylmethyl)oxy]phenyl}-2,3,4,5-tetrahydro-1H-3-benzazepine, trifluoroacetate] | 158 to 6310 nM
CCc1ccnc(COc2ccc(C)nc2-c2ccc3c(c2)CCNCC3)c1 [Example 33, 7-(3-{[(4-ethyl-2-pyridinyl)methyl]oxy}-6-methyl-2-pyridinyl)-2,3,4,5-tetrahydro-1H-3-benzazepine] | 158 to 6310 nM
CCOc1ccnc(COc2ccc(C(C)=O)cc2-c2ccc3c(c2)CCNCC3)c1 [Example 36, 1-[4-({[4-(ethyloxy)-2-pyridinyl]methyl}oxy)-3-(2,3,4,5-tetrahydro-1H-3-benzazepin-7-yl)phenyl]ethanone] | 158 to 6310 nM
Cc1ccnc(COc2ccc(C(C)(C)C)cc2-c2ccc3c(c2)CNCC3)c1 [Example 17, 7-(5-(1,1-dimethylethyl)-2-{[(4-methyl-2-pyridinyl)methyl]oxy}phenyl)-1,2,3,4-tetrahydroisoquinoline] | 158 to 6310 nM
Cc1ccnc(COc2ccc(C(F)(F)F)cc2-c2ccc3c(c2)CNCC3)c1 [Example 15, 7-[2-{[(4-methyl-2-pyridinyl)methyl]oxy}-5-(trifluoromethyl)phenyl]-1,2,3,4-tetrahydroisoquinoline] | 158 to 6310 nM
Cc1ccnc(COc2ccc(C)cc2-c2ccc3c(c2)CCNCC3)c1 [Example 27, 7-(5-methyl-2-{[(4-methyl-2-pyridinyl)methyl]oxy}phenyl)-2,3,4,5-tetrahydro-1H-3-benzazepine] | 158 to 6310 nM
COc1ccc(OCc2cc(C)ccn2)c(-c2ccc3c(c2)CCNCC3)c1 [Example 22, 7-(5-(methyloxy)-2-{[(4-methyl-2-pyridinyl)methyl]oxy}phenyl)-2,3,4,5-tetrahydro-1H-3-benzazepine, trifluoroacetate] | 158 to 6310 nM

Same assay, conditions: Homo sapiens, anti-IgM 5 μg/ml, pErk readout, read-out: average pIC50 (converted)

Compound | IC50
CC(=O)c1ccc(OCc2cc(C)ccn2)c(-c2ccc3c(c2)CCNCC3)c1 [Example 4, 1-[4-{[(4-methyl-2-pyridinyl)methyl]oxy}-3-(2,3,4,5-tetrahydro-1H-3-benzazepin-7-yl)phenyl]ethanone] | ≤ 1000 nM
COc1ccc(-c2ccc3c(c2)CCNCC3)c(OCc2cc(C)ccn2)c1 [Example 3, 7-(4-(methyloxy)-2-{[(4-methyl-2-pyridinyl)methyl]oxy}phenyl)-2,3,4,5-tetrahydro-1H-3-benzazepine] | ≤ 1000 nM
COc1cccc(OCc2cc(C)ccn2)c1-c1ccc2c(c1)CCNCC2 [Example 2, 7-(2-(methyloxy)-6-{[(4-methyl-2-pyridinyl)methyl]oxy}phenyl)-2,3,4,5-tetrahydro-1H-3-benzazepine] | ≤ 1000 nM
